Data as given in patent publication US10881667B2, “Method and composition for treating epilepsy” (City University of Hong Kong, priority 2018, dated 2021).
“Also recorded” adds a separate entry of the source.

Tested on: epilepsy model mice (intrahippocampal kainic acid)
Experiment: spontaneous recurrent seizures in kainic acid-induced epilepsy model mice, Racine scale accumulative scores
Format: in vivo, C57 mice
Conditions: YM022 100 nM, YF476 1 μM; for accumulative scores of spontaneous seizures / spontaneous seizures onset after drug intervention: adult male C57 mice, kainic acid model, i.p. injection, 10 μL (5 mice), 10 μL (9 mice), vs day before intervention; for seizure onsets after multiple injections: kainic acid model mice, multiple i.p. injections, 10 μL
Description: FIG. 1 is a series of line plots depicting the statistics of the accumulative scores of spontaneous seizures of epilepsy model mice before and after single or multiple drug interventions ([…], 1 μM, 10 μL). The 9 lines represent 9 epilepsy model mice of the experiment, and the black arrows indicate the time of drug interventions. Accumulative scores were recorded base on the quantity and severity of spontaneous seizures: 3=Racine scale stage-5 seizure; 2=Racine scale stage-4 seizure; 1=Racine scale stage-3 seizure; accumulative score is equal to sum of scores of seizures on daily basis.
FIG. 2 is a series of line plots depicting the statistics of the accumulative scores of spontaneous seizures of epilepsy model mice before and after single or multiple drug interventions (YM022, 100 nM, 10 μL). The 5 lines represent 5 epilepsy model mice of the experiment, and the black arrows indicate the time of drug interventions.
Adult male C57 mice were housed under standard conditions, with food and water available. For injection of kainic acid, mice were anesthetized with sodium pentobarbital (50 mg/kg, i.p.; Ceva Sante Animale Co., France), and atropine sulphate (0.05 mg/kg, s.c.) was administered to inhibit tracheal secretions. Kainic acid (0.3 mg/mL, 650 nL, Tocris), was stereotaxically injected into the right CA3 area of the hippocampus. Kainic acid was slowly injected over 60 s with a 2 μL microsyringe at the following stereotaxic coordinates: AP, −2.06; ML, −1.80; DV, −1.60, respectively. After injection, the needle of the syringe was maintained in situ for additional 5 min to limit reflux along the injection track. Directly after surgery, the mice were housed in clear plexiglass cages (one per cage). A special camera was placed diagonally above each cage for monitoring in both the light and dark phase. Exactly 2 weeks after kainic acid treatment, all videos were collected regularly, and three trained technicians blind to drug intervention viewed the videos. The seizure activities during 12-h epoch (00:00 a.m. to 12:00 p.m.) were rated with Racine scale (Electroencephalogr Clin Neurophysiol, 1972, 32(3): 281-294). Accumulative scores were recorded base on the quantity and severity of spontaneous seizures: 3=Racine scale stage-5 seizure; 2=Racine scale stage-4 seizure; 1=Racine scale stage-3 seizure; accumulative score is equal to sum of scores of seizures on daily basis.
The model of epilepsy induced in mice by kainic acid reproduces most of the clinical and neurophysiological features of human temporal lobe epilepsy. Unilateral intrahippocampal injection of kainic acid induced a limbic status epilepticus which may last for up to 5 hours. […]

## Cc1cccc(NC(=O)N[C@@H]2N=C(c3ccccc3)c3ccccc3N(CC(=O)c3ccccc3C)C2=O)c1 [YM022]
  accumulative scores of spontaneous seizures / spontaneous seizures onset after drug intervention: significantly reduce; also recorded: significant reduction
  seizure onsets after multiple injections: very rare

## CNc1cccc(NC(=O)N[C@@H]2N=C(c3ccccn3)c3ccccc3N(CC(=O)C(C)(C)C)C2=O)c1 [YF476]
  accumulative scores of spontaneous seizures / spontaneous seizures onset after drug intervention: significantly reduce; also recorded: significant reduction
  seizure onsets after multiple injections: very rare
